Measured values: patent US20250171430A1, “PYRAZOLYL COMPOUNDS AS KV7 CHANNEL ACTIVATORS” (Biohaven Therapeutics Ltd., priority 2022, published 2025)

Biological target: T1, Kv7.2/7.3 (Homo sapiens, UniProt O43525+O43526)
T1 construct: Kv7.2 tetracycline-induced, Kv7.3 constitutive
Test: Kv7.2/7.3 Activation Assay (Thallium Flux Assay)
Format: cell-based
Details: hKV7.2/7.3 cell line; test compound at single concentration of 10 μM; fluorescence at 90 sec normalized to positive control (retigabine, 30 μM)
Summary of the method: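 Single-point activity at 10 μM (0.1% DMSO, HEPES-buffered saline, pH 7.4) was scored from fluorescence at 90 s relative to 30 μM retigabine. Categories were none <0.15, moderate 0.15-0.7 and high >0.7. Thallium influx after stimulus addition was followed with FluxOR II Green dye in hKv7.2/7.3 cells, Kv7.2 expressed under overnight tetracycline (10 ng/mL) induction.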

| Structure (SMILES) | Kv7.2/7.3 Activity |
| --- | --- |
| Cn1nc(NC(=O)[C@@H]2CC2(F)F)c(C2(C)CCC2)c1-c1ccc(F)cc1 [Compound 140, (S)-2,2-difluoro-N-(5-(4-fluorophenyl)-1-methyl-4-(1-methylcyclobutyl)-1H-pyrazol-3-yl)cyclopropane-1-carboxamide] | + (“+” Moderate Activity 0.15-0.7) |
| CC(F)(F)C1(C(=O)Nc2nn(CC(F)(F)F)c(-c3ccc(F)cc3)c2C2CCC2)CC1 [Compound 141, N-(4-cyclobutyl-5-(4-fluorophenyl)-1-(2,2,2-trifluoroethyl)-1H-pyrazol-3-yl)-1-(1,1-difluoroethyl)cyclopropane-1-carboxamide] | − (“−” No Activity < 0.15) |
| C[C@H](C(=O)Nc1nn(CC(F)(F)F)c(-c2ccc(F)cc2)c1C1CCC1)C1(C(F)(F)F)CC1 [Compound 142, (S)-N-(4-cyclobutyl-5-(4-fluorophenyl)-1-(2,2,2-trifluoroethyl)-1H-pyrazol-3-yl)-2-(1-(trifluoromethyl)cyclopropyl)propanamide] | − (“−” No Activity < 0.15) |
| C[C@@H](C(=O)Nc1nn(CC(F)(F)F)c(-c2ccc(F)cc2)c1C1CCC1)C1(C(F)(F)F)CC1 [Compound 143, (R)-N-(4-cyclobutyl-5-(4-fluorophenyl)-1-(2,2,2-trifluoroethyl)-1H-pyrazol-3-yl)-2-(1-(trifluoromethyl)cyclopropyl)propanamide] | − (“−” No Activity < 0.15) |
| Cn1nc(NC(=O)[C@H]2C[C@]2(C)C(F)(F)F)c(C2CCC2)c1-c1ccc(F)cc1 [Compound 144, (1S,2S)-N-(4-cyclobutyl-5-(4-fluorophenyl)-1-methyl-1H-pyrazol-3-yl)-2-methyl-2-(trifluoromethyl)cyclopropane-1-carboxamide] | ++ (“++” High Activity ≥ 0.7) |
| Cn1nc(NC(=O)C2(C)CC2)c(C2CCC2)c1-c1ccc(F)cc1 [Compound 146, N-(4-cyclobutyl-5-(4-fluorophenyl)-1-methyl-1H-pyrazol-3-yl)-1-methylcyclopropane-1-carboxamide] | + (“+” Moderate Activity 0.15-0.7) |
| Cn1nc(NC(=O)[C@@H]2CC2(F)F)c(C2CCC2)c1C1CC(C)(C)C1 [Compound 147, (S)-N-(4-cyclobutyl-5-(3,3-dimethylcyclobutyl)-1-methyl-1H-pyrazol-3-yl)-2,2-difluorocyclopropane-1-carboxamide] | ++ (“++” High Activity ≥ 0.7) |
| Cn1nc(NC(=O)[C@H]2CC2(F)F)c(C2CCC2)c1C1CC(C)(C)C1 [Compound 148, (R)-N-(4-cyclobutyl-5-(3,3-dimethylcyclobutyl)-1-methyl-1H-pyrazol-3-yl)-2,2-difluorocyclopropane-1-carboxamide] | ++ (“++” High Activity ≥ 0.7) |
| Cc1nc(C)c(-c2c(C3CCC3)c(NC(=O)C3(C(F)(F)F)CC3)nn2C)s1 [Compound 149, N-(4-cyclobutyl-5-(2,4-dimethylthiazol-5-yl)-1-methyl-1H-pyrazol-3-yl)-1-(trifluoromethyl)cyclopropane-1-carboxamide] | − (“−” No Activity < 0.15) |
| Cn1nc(NC(=O)C2(C(F)(F)F)CC2)c(C2CCC2)c1-c1ccc(OC(F)(F)F)cc1 [Compound 150, N-(4-cyclobutyl-1-methyl-5-(4-(trifluoromethoxy)phenyl)-1H-pyrazol-3-yl)-1-(trifluoromethyl)cyclopropane-1-carboxamide] | + (“+” Moderate Activity 0.15-0.7) |
| Cn1nc(NC(=O)C2(C(F)(F)F)CC2)c(C2CCC2)c1C1CC(C)(C)C1 [Compound 151, N-(4-cyclobutyl-5-(3,3-dimethylcyclobutyl)-1-methyl-1H-pyrazol-3-yl)-1-(trifluoromethyl)cyclopropane-1-carboxamide] | ++ (“++” High Activity ≥ 0.7) |
| Cn1nc(NC(=O)[C@@H]2CC2(F)F)c(C2CCC2)c1C1CC(F)(F)C1 [Compound 156, (S)-N-(4-cyclobutyl-5-(3,3-difluorocyclobutyl)-1-methyl-1H-pyrazol-3-yl)-2,2-difluorocyclopropane-1-carboxamide] | ++ (“++” High Activity ≥ 0.7) |
| Cn1nc(NC(=O)[C@H]2CC2(F)F)c(C2CCC2)c1C1CC(F)(F)C1 [Compound 157, (R)-N-(4-cyclobutyl-5-(3,3-difluorocyclobutyl)-1-methyl-1H-pyrazol-3-yl)-2,2-difluorocyclopropane-1-carboxamide] | ++ (“++” High Activity ≥ 0.7) |
| Cn1nc(NC(=O)C2(C(F)(F)F)CC2)c(C2CCC2)c1C1CC(F)(F)C1 [Compound 158, N-(4-cyclobutyl-5-(3,3-difluorocyclobutyl)-1-methyl-1H-pyrazol-3-yl)-1-(trifluoromethyl)cyclopropane-1-carboxamide] | ++ (“++” High Activity ≥ 0.7) |
| Cn1nc(NC(=O)[C@@H]2CC2(F)F)c(C2CC2)c1-c1ccc(F)cc1 [Compound 163, (S)-N-(4-cyclopropyl-5-(4-fluorophenyl)-1-methyl-1H-pyrazol-3-yl)-2,2-difluorocyclopropane-1-carboxamide] | + (“+” Moderate Activity 0.15-0.7) |
| Cn1nc(NC(=O)C2(C(F)(F)F)CC2)c(C2CC2)c1-c1ccc(F)cc1 [Compound 165, N-(4-cyclopropyl-5-(4-fluorophenyl)-1-methyl-1H-pyrazol-3-yl)-1-(trifluoromethyl)cyclopropane-1-carboxamide] | ++ (“++” High Activity ≥ 0.7) |
| Cn1nc(NC(=O)C2(C(F)(F)F)CC2)c(C2CCC2)c1-c1cccc(F)c1 [Compound 166, N-(4-cyclobutyl-5-(3-fluorophenyl)-1-methyl-1H-pyrazol-3-yl)-1-(trifluoromethyl)cyclopropane-1-carboxamide] | ++ (“++” High Activity ≥ 0.7) |
| O=C(Nc1nn(CC(F)(F)F)c(-c2ccc(F)cc2)c1C1CCC1)C1(C(F)(F)F)CC1 [Compound 169, N-(4-cyclobutyl-5-(4-fluorophenyl)-1-(2,2,2-trifluoroethyl)-1H-pyrazol-3-yl)-1-(trifluoromethyl)cyclopropane-1-carboxamide] | + (“+” Moderate Activity 0.15-0.7) |
| Cn1nc(NC(=O)C2(C(F)(F)F)CC2)c(C2CCC2)c1-c1ccccc1F [Compound 170, N-(4-cyclobutyl-5-(2-fluorophenyl)-1-methyl-1H-pyrazol-3-yl)-1-(trifluoromethyl)cyclopropane-1-carboxamide] | + (“+” Moderate Activity 0.15-0.7) |

Further lines, results first:

| Kv7.2/7.3 Activity | Structure (SMILES) |
| --- | --- |
| ++ (“++” High Activity ≥ 0.7) | Cn1nc(NC(=O)C2(C)CC2)c(C2CCC2)c1-c1ccc(Cl)s1 [Compound 152, N-(5-(5-chlorothiophen-2-yl)-4-cyclobutyl-1-methyl-1H-pyrazol-3-yl)-1-methylcyclopropane-1-carboxamide] |
| ++ (“++” High Activity ≥ 0.7) | Cn1nc(NC(=O)C2(C(F)(F)F)CC2)c(C2CCC2)c1-c1ccc(Cl)s1 [Compound 153, N-(5-(5-chlorothiophen-2-yl)-4-cyclobutyl-1-methyl-1H-pyrazol-3-yl)-1-(trifluoromethyl)cyclopropane-1-carboxamide] |
| + (“+” Moderate Activity 0.15-0.7) | Cn1nc(NC(=O)[C@H]2CC2(F)F)c(C2CCC2)c1-c1ccc(Cl)s1 [Compound 154, (R)-N-(5-(5-chlorothiophen-2-yl)-4-cyclobutyl-1-methyl-1H-pyrazol-3-yl)-2,2-difluorocyclopropane-1-carboxamide] |
| ++ (“++” High Activity ≥ 0.7) | Cn1nc(NC(=O)[C@@H]2CC2(F)F)c(C2CCC2)c1-c1ccc(Cl)s1 [Compound 155, (S)-N-(5-(5-chlorothiophen-2-yl)-4-cyclobutyl-1-methyl-1H-pyrazol-3-yl)-2,2-difluorocyclopropane-1-carboxamide] |
| + (“+” Moderate Activity 0.15-0.7) | Cn1nc(NC(=O)[C@H]2CC2(F)F)c(C2CCC2)c1-c1ccc(F)cc1F [Compound 159, (R)-N-(4-cyclobutyl-5-(2,4-difluorophenyl)-1-methyl-1H-pyrazol-3-yl)-2,2-difluorocyclopropane-1-carboxamide] |
| − (“−” No Activity < 0.15) | Cn1nc(NC(=O)[C@@H]2CC2(F)F)c(C2CCC2)c1-c1ccc(F)cc1F [Compound 160, (S)-N-(4-cyclobutyl-5-(2,4-difluorophenyl)-1-methyl-1H-pyrazol-3-yl)-2,2-difluorocyclopropane-1-carboxamide] |
| + (“+” Moderate Activity 0.15-0.7) | Cn1nc(NC(=O)[C@H]2CC2(F)F)c(C2CCC2)c1-c1ccccc1F [Compound 161, (R)-N-(4-cyclobutyl-5-(2-fluorophenyl)-1-methyl-1H-pyrazol-3-yl)-2,2-difluorocyclopropane-1-carboxamide] |
| + (“+” Moderate Activity 0.15-0.7) | Cn1nc(NC(=O)[C@@H]2CC2(F)F)c(C2CCC2)c1-c1ccccc1F [Compound 162, (S)-N-(4-cyclobutyl-5-(2-fluorophenyl)-1-methyl-1H-pyrazol-3-yl)-2,2-difluorocyclopropane-1-carboxamide] |
| ++ (“++” High Activity ≥ 0.7) | Cn1nc(NC(=O)[C@H]2CC2(F)F)c(C2CC2)c1-c1ccc(F)cc1 [Compound 164, (R)-N-(4-cyclopropyl-5-(4-fluorophenyl)-1-methyl-1H-pyrazol-3-yl)-2,2-difluorocyclopropane-1-carboxamide] |
| + (“+” Moderate Activity 0.15-0.7) | Cn1nc(NC(=O)[C@@H]2CC2(F)F)c(C2CCC2)c1-c1cccc(F)c1 [Compound 167, (S)-N-(4-cyclobutyl-5-(3-fluorophenyl)-1-methyl-1H-pyrazol-3-yl)-2,2-difluorocyclopropane-1-carboxamide] |
| ++ (“++” High Activity ≥ 0.7) | Cn1nc(NC(=O)[C@H]2CC2(F)F)c(C2CCC2)c1-c1cccc(F)c1 [Compound 168, (R)-N-(4-cyclobutyl-5-(3-fluorophenyl)-1-methyl-1H-pyrazol-3-yl)-2,2-difluorocyclopropane-1-carboxamide] |
